The values that follow are results of earlier work, collected in patent publication US6987099B2, “Uncomplexed cyclodextrin compositions for odor control” (The Procter & Gamble Company, priority 1997, dated 2006).

Structures can show the parent of a compound that is named as a salt.

On to `OCc1ccccc1` [benzyl alcohol], for which the solubility in water result was “about 4%”.
Take `OCCOc1ccccc1` [2-phenoxyethanol]: the solubility in water result is listed as “about 2.67%”.
As to `O=[N+]([O-])C1(Br)COCOC1` [Bronidox L, 5-bromo-5-nitro-1,3-dioxane], the solubility in water entry was “about 0.46%”.
`[Na+].[O-][n+]1ccccc1[S-]` [sodium pyrithione]: the solubility in water result was “about 50%”.
On to `OCCc1ccccc1` [2-phenylethanol], for which the solubility in water result is “about 2%”.
`CC(C)(O)C(Cl)(Cl)Cl` [chlorobutanol, 1,1,1-Trichloro-2-methylpropan-2-ol]: the solubility in water entry is “about 0.8%”.
`[H]/N=C(\N/C(=N/[H])NCCCCCCNC(=N)NC(=N)Nc1ccc(Cl)cc1)Nc1ccc(Cl)cc1` [digluconate salt, 1,1′-hexamethylene bis(5-(p-chlorophenyl)biguanide), reference compound]: the solubility in water result is “about 70%”.
Take `ClC=CC[N+]12CN3CN(CN(C3)C1)C2.[Cl-]` [Dowicil 200, 1-(3-Chlorallyl)-3,5,7-triaza-1-azoniaadamantane chloride]: the “solubility in water” value is recorded as “freely soluble in water”.
As to `CC1(C)C(=O)N(CO)C(=O)N1CO` [DMDM hydantoin, 1,3-bis(hydroxymethyl)-5,5-dimethyl-2,4-imidazolidinedione], the solubility in water result was “more than 50%”.
For `[H]/N=C(\N/C(=N/[H])NCCCCCCNC(=N)NC(=N)Nc1ccc(Cl)cc1)Nc1ccc(Cl)cc1` [diacetate salt, 1,1′-hexamethylene bis(5-(p-chlorophenyl)biguanide), reference compound], the solubility in water result is “about 1.8%”.
